Assay results as given in ChEMBL document CHEMBL1153040, “HIF-1alpha peptide derivatives with modifications at the hydroxyproline residue as activators of HIF-1alpha” (Bioorg Med Chem Lett, 2009).
pKi: −log10 of the molar value. Calls of active or inactive are those of the source. No cut-off for these calls is given here.

Key:
HeLa = assay: Induction of HIFalpha stabilization in human HeLa cells assessed as HIFalpha accumulation at 1 mM incubated under normoxic condition for 6 hrs by Western blot analysis; type: functional, cell-based
[1] = target: Hypoxia-inducible factor 1-alpha (Homo sapiens, UniProt Q16665); assay: Inhibition of interaction between fluorescein-labeled proline hydroxylated human HIFalpha (556 to 575) and human VHL-human elongin B-human elongin C complex expressed in Escherichia coli by fluorescence polarization assay
Sequence of Hypoxia-inducible factor 1-alpha (Q16665 whole entry): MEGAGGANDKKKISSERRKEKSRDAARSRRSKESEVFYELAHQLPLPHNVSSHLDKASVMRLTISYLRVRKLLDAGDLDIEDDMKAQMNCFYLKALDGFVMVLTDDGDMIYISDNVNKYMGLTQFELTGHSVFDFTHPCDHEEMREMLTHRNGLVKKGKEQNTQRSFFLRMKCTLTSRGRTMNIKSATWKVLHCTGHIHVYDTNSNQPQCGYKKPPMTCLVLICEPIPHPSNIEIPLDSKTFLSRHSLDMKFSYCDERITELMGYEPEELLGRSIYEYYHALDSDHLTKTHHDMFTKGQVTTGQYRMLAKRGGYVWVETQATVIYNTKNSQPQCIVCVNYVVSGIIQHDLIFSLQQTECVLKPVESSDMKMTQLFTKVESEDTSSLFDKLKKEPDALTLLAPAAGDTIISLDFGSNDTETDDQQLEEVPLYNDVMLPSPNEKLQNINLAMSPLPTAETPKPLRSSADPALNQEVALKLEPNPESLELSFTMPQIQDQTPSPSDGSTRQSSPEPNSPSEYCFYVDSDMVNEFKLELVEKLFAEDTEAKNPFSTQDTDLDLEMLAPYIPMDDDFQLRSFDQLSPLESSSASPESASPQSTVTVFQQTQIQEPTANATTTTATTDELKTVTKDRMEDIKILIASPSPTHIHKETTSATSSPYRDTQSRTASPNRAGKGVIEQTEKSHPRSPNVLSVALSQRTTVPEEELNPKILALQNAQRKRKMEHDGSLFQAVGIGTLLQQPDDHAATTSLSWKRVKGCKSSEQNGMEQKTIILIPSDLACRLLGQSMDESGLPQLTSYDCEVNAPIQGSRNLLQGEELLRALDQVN

| Structure (SMILES) | Activity (HeLa) | pKi [1] |
| --- | --- | --- |
| CC[C@@H](C)[C@H](NC(=O)[C@H](Cc1ccc(O)cc1)NC(=O)[C@H](CCO)NC(=O)[C@H](C)NC(=O)[C@H](CC(C)C)NC(=O)[C@H](C)NC(=O)[C@H](CCC(=O)O)NC(=O)[C@H](CC(C)C)NC(=O)[C@H](CC(=O)O)NC(=O)[C@H](CC(C)C)NC(=O)[C@@H](N)CC(=O)O)C(=O)N1CCC[C@H]1C(=O)N[C@@H](C)C(=O)N[C@@H](CC(=O)O)C(=O)N[C@@H](CC(=O)O)C(=O)N[C@@H](CC(=O)O)C(=O)N[C@@H](Cc1ccccc1)C(=O)N[C@@H](CCC(N)=O)C(=O)N[C@@H](CC(C)C)C(=O)N[C@@H](CCCNC(=N)N)C(N)=O | Active | – |
| CC[C@@H](C)[C@H](NC(=O)[C@H](Cc1ccc(O)cc1)NC(=O)[C@@H]1CCCCN1C(=O)[C@H](C)NC(=O)[C@H](CC(C)C)NC(=O)[C@H](C)NC(=O)[C@H](CCC(=O)O)NC(=O)[C@H](CC(C)C)NC(=O)[C@H](CC(=O)O)NC(=O)[C@H](CC(C)C)NC(=O)[C@@H](N)CC(=O)O)C(=O)N1CCC[C@H]1C(=O)N[C@@H](C)C(=O)N[C@@H](CC(=O)O)C(=O)N[C@@H](CC(=O)O)C(=O)N[C@@H](CC(=O)O)C(=O)N[C@@H](Cc1ccccc1)C(=O)N[C@@H](CCC(N)=O)C(=O)N[C@@H](CC(C)C)C(=O)N[C@@H](CCCN=C(N)N)C(N)=O | – | 4.11 |
| CC[C@@H](C)[C@H](NC(=O)[C@H](Cc1ccc(O)cc1)NC(=O)[C@H](CC(N)=O)NC(=O)[C@H](C)NC(=O)[C@H](CC(C)C)NC(=O)[C@H](C)NC(=O)[C@H](CCC(=O)O)NC(=O)[C@H](CC(C)C)NC(=O)[C@H](CC(=O)O)NC(=O)[C@H](CC(C)C)NC(=O)[C@@H](N)CC(=O)O)C(=O)N1CCC[C@H]1C(=O)N[C@@H](C)C(=O)N[C@@H](CC(=O)O)C(=O)N[C@@H](CC(=O)O)C(=O)N[C@@H](CC(=O)O)C(=O)N[C@@H](Cc1ccccc1)C(=O)N[C@@H](CCC(N)=O)C(=O)N[C@@H](CC(C)C)C(=O)N[C@@H](CCCNC(=N)N)C(N)=O | – | 4.89 |
| CC[C@@H](C)[C@H](NC(=O)[C@H](Cc1ccc(O)cc1)NC(=O)[C@@H](NC(=O)[C@H](C)NC(=O)[C@H](CC(C)C)NC(=O)[C@H](C)NC(=O)[C@H](CCC(=O)O)NC(=O)[C@H](CC(C)C)NC(=O)[C@H](CC(=O)O)NC(=O)[C@H](CC(C)C)NC(=O)[C@@H](N)CC(=O)O)[C@H](C)O)C(=O)N1CCC[C@H]1C(=O)N[C@@H](C)C(=O)N[C@@H](CC(=O)O)C(=O)N[C@@H](CC(=O)O)C(=O)N[C@@H](CC(=O)O)C(=O)N[C@@H](Cc1ccccc1)C(=O)N[C@@H](CCC(N)=O)C(=O)N[C@@H](CC(C)C)C(=O)N[C@@H](CCCN=C(N)N)C(N)=O | – | 4.74 |
| CC[C@@H](C)[C@H](NC(=O)[C@H](Cc1ccc(O)cc1)NC(=O)[C@@H]1C[C@@H](O)CN1C(=O)[C@H](C)NC(=O)[C@H](CC(C)C)NC(=O)[C@H](C)NC(=O)[C@H](CCC(=O)O)NC(=O)[C@H](CC(C)C)NC(=O)[C@H](CC(=O)O)NC(=O)[C@H](CC(C)C)NC(=O)[C@@H](N)CC(=O)O)C(=O)N1CCC[C@H]1C(=O)N[C@@H](C)C(=O)N[C@@H](CC(=O)O)C(=O)N[C@@H](CC(=O)O)C(=O)N[C@@H](CC(=O)O)C(=O)N[C@@H](Cc1ccccc1)C(=O)N[C@@H](CCC(N)=O)C(=O)N[C@@H](CC(C)C)C(=O)N[C@@H](CCCN=C(N)N)C(N)=O | – | 5.43 |
| CC[C@@H](C)[C@H](NC(=O)[C@H](Cc1ccc(O)cc1)NC(=O)[C@H](CC(C)C)NC(=O)[C@H](C)NC(=O)[C@H](CC(C)C)NC(=O)[C@H](C)NC(=O)[C@H](CCC(=O)O)NC(=O)[C@H](CC(C)C)NC(=O)[C@H](CC(=O)O)NC(=O)[C@H](CC(C)C)NC(=O)[C@@H](N)CC(=O)O)C(=O)N1CCC[C@H]1C(=O)N[C@@H](C)C(=O)N[C@@H](CC(=O)O)C(=O)N[C@@H](CC(=O)O)C(=O)N[C@@H](CC(=O)O)C(=O)N[C@@H](Cc1ccccc1)C(=O)N[C@@H](CCC(N)=O)C(=O)N[C@@H](CC(C)C)C(=O)N[C@@H](CCCNC(=N)N)C(N)=O | inactive | 4.24 |
| CC[C@@H](C)[C@H](NC(=O)[C@H](Cc1ccc(O)cc1)NC(=O)[C@@H]1C[C@@H](O)CN1C(=O)[C@H](C)NC(=O)[C@H](CC(C)C)NC(=O)[C@H](C)NC(=O)[C@H](CCC(=O)O)NC(=O)[C@H](CC(C)C)NC(=O)[C@H](CC(=O)O)NC(=O)[C@H](CC(C)C)NC(=O)[C@@H](N)CC(=O)O)C(=O)N1CCC[C@H]1C(=O)N[C@@H](C)C(=O)N[C@@H](CC(=O)O)C(=O)N[C@@H](CC(=O)O)C(=O)N[C@@H](CC(=O)O)C(=O)N[C@@H](Cc1ccccc1)C(=O)N[C@@H](CCC(N)=O)C(=O)N[C@@H](CC(C)C)C(=O)N[C@@H](CCCNC(=N)N)C(N)=O | Active | – |
| CC[C@@H](C)[C@H](NC(=O)[C@H](Cc1ccc(O)cc1)NC(=O)[C@@H](NC(=O)[C@H](C)NC(=O)[C@H](CC(C)C)NC(=O)[C@H](C)NC(=O)[C@H](CCC(=O)O)NC(=O)[C@H](CC(C)C)NC(=O)[C@H](CC(=O)O)NC(=O)[C@H](CC(C)C)NC(=O)[C@@H](N)CC(=O)O)C(C)C)C(=O)N1CCC[C@H]1C(=O)N[C@@H](C)C(=O)N[C@@H](CC(=O)O)C(=O)N[C@@H](CC(=O)O)C(=O)N[C@@H](CC(=O)O)C(=O)N[C@@H](Cc1ccccc1)C(=O)N[C@@H](CCC(N)=O)C(=O)N[C@@H](CC(C)C)C(=O)N[C@@H](CCCNC(=N)N)C(N)=O | – | 4.80 |
| CC[C@@H](C)[C@H](NC(=O)[C@H](Cc1ccc(O)cc1)NC(=O)[C@H](CC(=O)O)NC(=O)[C@H](C)NC(=O)[C@H](CC(C)C)NC(=O)[C@H](C)NC(=O)[C@H](CCC(=O)O)NC(=O)[C@H](CC(C)C)NC(=O)[C@H](CC(=O)O)NC(=O)[C@H](CC(C)C)NC(=O)[C@@H](N)CC(=O)O)C(=O)N1CCC[C@H]1C(=O)N[C@@H](C)C(=O)N[C@@H](CC(=O)O)C(=O)N[C@@H](CC(=O)O)C(=O)N[C@@H](CC(=O)O)C(=O)N[C@@H](Cc1ccccc1)C(=O)N[C@@H](CCC(N)=O)C(=O)N[C@@H](CC(C)C)C(=O)N[C@@H](CCCNC(=N)N)C(N)=O | – | 4.82 |
| CC[C@@H](C)[C@H](NC(=O)[C@H](Cc1ccc(O)cc1)NC(=O)[C@H](CCO)NC(=O)[C@H](C)NC(=O)[C@H](CC(C)C)NC(=O)[C@H](C)NC(=O)[C@H](CCC(=O)O)NC(=O)[C@H](CC(C)C)NC(=O)[C@H](CC(=O)O)NC(=O)[C@H](CC(C)C)NC(=O)[C@@H](N)CC(=O)O)C(=O)N1CCC[C@H]1C(=O)N[C@@H](C)C(=O)N[C@@H](CC(=O)O)C(=O)N[C@@H](CC(=O)O)C(=O)N[C@@H](CC(=O)O)C(=O)N[C@@H](Cc1ccccc1)C(=O)N[C@@H](CCC(N)=O)C(=O)N[C@@H](CC(C)C)C(=O)N[C@@H](CCCN=C(N)N)C(N)=O | – | 5.47 |
| CC[C@@H](C)[C@H](NC(=O)[C@H](Cc1ccc(O)cc1)NC(=O)[C@@H]1C[C@@H](F)CN1C(=O)[C@H](C)NC(=O)[C@H](CC(C)C)NC(=O)[C@H](C)NC(=O)[C@H](CCC(=O)O)NC(=O)[C@H](CC(C)C)NC(=O)[C@H](CC(=O)O)NC(=O)[C@H](CC(C)C)NC(=O)[C@@H](N)CC(=O)O)C(=O)N1CCC[C@H]1C(=O)N[C@@H](C)C(=O)N[C@@H](CC(=O)O)C(=O)N[C@@H](CC(=O)O)C(=O)N[C@@H](CC(=O)O)C(=O)N[C@@H](Cc1ccccc1)C(=O)N[C@@H](CCC(N)=O)C(=O)N[C@@H](CC(C)C)C(=O)N[C@@H](CCCNC(=N)N)C(N)=O | Active | 5.24 |
| CC[C@@H](C)[C@H](NC(=O)[C@H](Cc1ccc(O)cc1)NC(=O)[C@H](CCN)NC(=O)[C@H](C)NC(=O)[C@H](CC(C)C)NC(=O)[C@H](C)NC(=O)[C@H](CCC(=O)O)NC(=O)[C@H](CC(C)C)NC(=O)[C@H](CC(=O)O)NC(=O)[C@H](CC(C)C)NC(=O)[C@@H](N)CC(=O)O)C(=O)N1CCC[C@H]1C(=O)N[C@@H](C)C(=O)N[C@@H](CC(=O)O)C(=O)N[C@@H](CC(=O)O)C(=O)N[C@@H](CC(=O)O)C(=O)N[C@@H](Cc1ccccc1)C(=O)N[C@@H](CCC(N)=O)C(=O)N[C@@H](CC(C)C)C(=O)N[C@@H](CCCN=C(N)N)C(N)=O | – | 3.96 |
| CC[C@@H](C)[C@H](NC(=O)[C@H](C)NC(=O)[C@H](CC(C)C)NC(=O)[C@H](C)NC(=O)[C@H](CCC(=O)O)NC(=O)[C@H](CC(C)C)NC(=O)[C@H](CC(=O)O)NC(=O)[C@H](CC(C)C)NC(=O)[C@@H](N)CC(=O)O)C(=O)N[C@@H](Cc1ccc(O)cc1)C(=O)N[C@H](C(=O)N1CCC[C@H]1C(=O)N[C@@H](C)C(=O)N[C@@H](CC(=O)O)C(=O)N[C@@H](CC(=O)O)C(=O)N[C@@H](CC(=O)O)C(=O)N[C@@H](Cc1ccccc1)C(=O)N[C@@H](CCC(N)=O)C(=O)N[C@@H](CC(C)C)C(=O)N[C@@H](CCCN=C(N)N)C(N)=O)[C@H](C)CC | – | 4.30 |
| CC[C@@H](C)[C@H](NC(=O)[C@H](Cc1ccc(O)cc1)NC(=O)[C@@H]1CCCN1C(=O)[C@H](C)NC(=O)[C@H](CC(C)C)NC(=O)[C@H](C)NC(=O)[C@H](CCC(=O)O)NC(=O)[C@H](CC(C)C)NC(=O)[C@H](CC(=O)O)NC(=O)[C@H](CC(C)C)NC(=O)[C@@H](N)CC(=O)O)C(=O)N1CCC[C@H]1C(=O)N[C@@H](C)C(=O)N[C@@H](CC(=O)O)C(=O)N[C@@H](CC(=O)O)C(=O)N[C@@H](CC(=O)O)C(=O)N[C@@H](Cc1ccccc1)C(=O)N[C@@H](CCC(N)=O)C(=O)N[C@@H](CC(C)C)C(=O)N[C@@H](CCCNC(=N)N)C(N)=O | – | < 3.30 |
